Data on one compound can be found in BindingDB's records for doi:10.1016/j.bmcl.2012.09.045 (East China University of Science and Technology, 2012).

As usually defined, the EC50 is the midpoint of the concentration-response curve. Lower therefore signals an effect from little substance.

This test deals with T1, Bile acid receptor (Homo sapiens, UniProt Q96RI1).
T1 sequence (Q96RI1 whole entry): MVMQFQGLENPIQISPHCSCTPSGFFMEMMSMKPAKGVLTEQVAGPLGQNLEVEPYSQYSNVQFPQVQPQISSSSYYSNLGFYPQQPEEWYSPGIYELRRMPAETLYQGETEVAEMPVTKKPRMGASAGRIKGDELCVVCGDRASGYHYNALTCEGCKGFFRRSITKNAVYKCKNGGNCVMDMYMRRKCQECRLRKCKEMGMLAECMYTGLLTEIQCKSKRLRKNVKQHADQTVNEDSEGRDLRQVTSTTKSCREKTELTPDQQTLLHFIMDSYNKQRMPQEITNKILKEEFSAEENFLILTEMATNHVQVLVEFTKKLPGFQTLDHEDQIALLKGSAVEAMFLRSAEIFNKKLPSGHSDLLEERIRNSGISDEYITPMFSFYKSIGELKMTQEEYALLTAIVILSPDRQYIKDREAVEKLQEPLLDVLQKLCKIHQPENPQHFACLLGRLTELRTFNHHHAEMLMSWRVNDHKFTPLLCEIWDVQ
The test is described as follows: Agonist activity at FXR.

With `COC(=O)/C=C/c1cccc(N(Cc2ccc(-c3ccc(C(C)(C)C)cc3)cc2)C(=O)C(C)C)c1`, a half-maximal effect (EC50) was put at 343 nM.
